Source: patent US5948814A, “Genistein for the treatment of cystic fibrosis” (priority 1998, dated 1999)
Read-outs that look alike come from different tables or passages of the source.

Columns and labels:
Assay type in all cases: cell-based
wt-CFTR [1] = target: T1, wt-CFTR (Homo sapiens, UniProt P13569); assay: cell-based; set-up: expressed in transfected cells
Description: FIG. 1 is a graph representing the dose-responses relationship for forskolin-dependent I^- efflux. Peak rates of I^- efflux in the presence (closed symbols) or absence (open symbols) of 50 μM genistein were obtained with NIH/3T3-cystic fibrosis transmembrane conductance regulator (NIH/3T3-CFTR) (circles) and NTH/3T3-Δphenylalanine 508 (ΔF508) cells (triangles). NIH/3T3-CFTR cells are cultured at 37° C. NIH/3T3-Δ508 cells are cultured at 27° C. for 3 days prior to assay. Data are mean values±SE (n>5). Lines were fit by nonlinear least squares.
(§1) Cell culture: NIH/3T3-CFTR, NIH/3T3-ΔF508, and NIH/3T3 mock cells (generous gifts from Dr. Richard Mulligan of Children's Hospital and Medical Center, Harvard Medical School) were grown as described [Bradbury et al., 1992] at 37° C. and 5% CO2 in Dulbecco's modified Eagle's medium-H21 supplemented with 10% new-born calf serum, 4 mM glutamine, 25 mM glucose, 100 μg/ml penicillin, 100 μg/ml streptomycin, and 50 μg/ml gentamicin. Cells were maintained in T75 flasks, passaged at 90-95% confluency, and split one to four. For measurements of I^- efflux and in vivo phosphorylation, cells were seeded onto 35-mm dishes at […]. For patch-clamp experiments, cells were grown on coverglass chips in 35-mm culture dishes. Media were replaced 24 hours after plating and thereafter every 48 hours. In all cases, media were changed on the day before I^- efflux studies, NIH/3T3-ΔF508 cells were transferred to 27° C. three days before use, and 1 day prior to study, media were supplemented with 5 mM butyrate. For patch-clamp studies, where a constant level of functional ΔF508-CFTR was not essential, NIH/3T3-ΔF508 cells were cultured at 27° C. for 2-6 days before use. Calu-3 cells were grown and maintained as described by Hunter [1995].
I^- efflux: I^- efflux was measured as described previously [Reenstra et al., 1996]. Briefly, cells were incubated for 30 minutes with 37° C. I^- efflux buffer [(in mM) 141 NaCl, 4 KCl, 1 KH2 PO4, 0.9 MgCl2, 1.7 CaCl2. 10 N-2hydroxyethylpiperazine-N'-2-ethanesulfonic acid (HEPES), 25 glucose pH 7.4] containing 5 μCi/ml carrier-free ^125 I^- (sodium salt). Extracellular ^125 I^- was removed by washing four times with efflux buffer, and the rate of loss of intracellular ^125 I^- was determined by replacing the bathing solution with 37° C. efflux buffer every 60 seconds for 12 minutes. Time-dependent rates of ^125 I^- efflux are calculated from R=ln(^125 I^-t1 /^125 I^-t2)/(t1-t2), where ^125 I^-t is the intracellular ^125 I^- at time t and t1 and t2 are successive time points. Dose-response curves were obtained from peak rates of 125I^- efflux by nonlinear least squares fitting to R=[Ro +Rmx ·([fsk]/K1/2)]/[1+([fsk]/K1/2)], where Ro and Rmx are the rates of ^125 I efflux at zero and infinite concentration of forskolin (fsk), and K1/2 is the concentration of agonist that gives a half-maximal change.
To investigate effects of genistein on CFTR activity, the rates of I^- efflux were measured from stably transfected NIH/3T3 cells expressing wt- and ΔF508-CFTR (NIH/33-CFTR and NIH/3T3-ΔF508 cells, respectively).

ΔF508-CFTR = ΔF508-CFTR (Homo sapiens, UniProt P13569, DEL508-508); assay: Mean current-variance analysis of macroscopic currents, NIH/3T3-ΔF508 cells; set-up: expressed in transfected cells; host or cells: NIH/3T3 cells, stably transfected (NIH/3T3-ΔF508, gift of Dr. Richard Mulligan)
Description: (§2) FIGS. 4A and B are graphs showing the variance analysis of macroscopic currents for wt- and ΔF508-CFTR wherein (A) is a plot of variance as a function of mean-current amplitude for NIH/3T3-CFTR(.circle-solid.) and NIH/3T3-ΔF508 (.smallcircle.) cells stimulated with 10 μM forskolin plus 50 μM genistein. (B) is a plot of variance as a function of mean-current amplitude for NIH/3T3-CFTR (.circle-solid.) and NIH/3T3-ΔF508 (.smallcircle.) cells stimulated with 10 μM forskolin. Lines are least square regressions.
(§3) Electrophysiology: CFTR channel currents were recorded at room temperature (~22° C.) with a patch-clamp amplifier (EPC-9, Heka Electronic), filtered at 100 Hz with a built-in three-pole Bessel filter, and stored on videotapes. Data were subsequently refiltered at 25 Hz with an eight-pole Bessel filter (Frequency Device, Havervill, Mass.) and captured onto a hard disk at a sampling rate of 50 Hz. […] Patch-clamp electrodes were made from Corning 7052 glass capillaries (Warner Instrument, Hammed, Conn.). The pipette resistance was usually 3-5 M.OMEGA., and the seal resistance was >20 G.OMEGA.. […]
(§4) Statistics: Mean currents and variance were estimated with Igor (Wavemetrics, Lake Oswego, Oreg.). […] Po was calculated from patches containing a single channel by dividing the open channel current amplitude with the mean-current amplitude. […] Calculated values are presented as means±SE. […]

wt-CFTR [2] = target: T1, wt-CFTR; set-up: expressed in transfected cells
Description: as §2, §3, §4

[3] = tested on: mock-transfected NIH/3T3 cells; assay: I- efflux, mock-transfected NIH/3T3 cells
Description: as §1
I^- efflux: I^- efflux was measured as described previously [Reenstra et al., 1996]. Briefly, cells were incubated for 30 minutes with 37° C. I^- efflux buffer [(in mM) 141 NaCl, 4 KCl, 1 KH2 PO4, 0.9 MgCl2, 1.7 CaCl2. […] Extracellular ^125 I^- was removed by washing four times with efflux buffer, and the rate of loss of intracellular ^125 I^- was determined by replacing the bathing solution with 37° C. efflux buffer every 60 seconds for 12 minutes. Time-dependent rates of ^125 I^- efflux are calculated from R=ln(^125 I^-t1 /^125 I^-t2)/(t1-t2), where ^125 I^-t is the intracellular ^125 I^- at time t and t1 and t2 are successive time points. […]
To investigate effects of genistein on CFTR activity, the rates of I^- efflux were measured from stably transfected NIH/3T3 cells expressing wt- and ΔF508-CFTR (NIH/33-CFTR and NIH/3T3-ΔF508 cells, respectively). […]

[4] = 10 μM forskolin and 50 μM genistein

T1 sequence (P13569 whole entry): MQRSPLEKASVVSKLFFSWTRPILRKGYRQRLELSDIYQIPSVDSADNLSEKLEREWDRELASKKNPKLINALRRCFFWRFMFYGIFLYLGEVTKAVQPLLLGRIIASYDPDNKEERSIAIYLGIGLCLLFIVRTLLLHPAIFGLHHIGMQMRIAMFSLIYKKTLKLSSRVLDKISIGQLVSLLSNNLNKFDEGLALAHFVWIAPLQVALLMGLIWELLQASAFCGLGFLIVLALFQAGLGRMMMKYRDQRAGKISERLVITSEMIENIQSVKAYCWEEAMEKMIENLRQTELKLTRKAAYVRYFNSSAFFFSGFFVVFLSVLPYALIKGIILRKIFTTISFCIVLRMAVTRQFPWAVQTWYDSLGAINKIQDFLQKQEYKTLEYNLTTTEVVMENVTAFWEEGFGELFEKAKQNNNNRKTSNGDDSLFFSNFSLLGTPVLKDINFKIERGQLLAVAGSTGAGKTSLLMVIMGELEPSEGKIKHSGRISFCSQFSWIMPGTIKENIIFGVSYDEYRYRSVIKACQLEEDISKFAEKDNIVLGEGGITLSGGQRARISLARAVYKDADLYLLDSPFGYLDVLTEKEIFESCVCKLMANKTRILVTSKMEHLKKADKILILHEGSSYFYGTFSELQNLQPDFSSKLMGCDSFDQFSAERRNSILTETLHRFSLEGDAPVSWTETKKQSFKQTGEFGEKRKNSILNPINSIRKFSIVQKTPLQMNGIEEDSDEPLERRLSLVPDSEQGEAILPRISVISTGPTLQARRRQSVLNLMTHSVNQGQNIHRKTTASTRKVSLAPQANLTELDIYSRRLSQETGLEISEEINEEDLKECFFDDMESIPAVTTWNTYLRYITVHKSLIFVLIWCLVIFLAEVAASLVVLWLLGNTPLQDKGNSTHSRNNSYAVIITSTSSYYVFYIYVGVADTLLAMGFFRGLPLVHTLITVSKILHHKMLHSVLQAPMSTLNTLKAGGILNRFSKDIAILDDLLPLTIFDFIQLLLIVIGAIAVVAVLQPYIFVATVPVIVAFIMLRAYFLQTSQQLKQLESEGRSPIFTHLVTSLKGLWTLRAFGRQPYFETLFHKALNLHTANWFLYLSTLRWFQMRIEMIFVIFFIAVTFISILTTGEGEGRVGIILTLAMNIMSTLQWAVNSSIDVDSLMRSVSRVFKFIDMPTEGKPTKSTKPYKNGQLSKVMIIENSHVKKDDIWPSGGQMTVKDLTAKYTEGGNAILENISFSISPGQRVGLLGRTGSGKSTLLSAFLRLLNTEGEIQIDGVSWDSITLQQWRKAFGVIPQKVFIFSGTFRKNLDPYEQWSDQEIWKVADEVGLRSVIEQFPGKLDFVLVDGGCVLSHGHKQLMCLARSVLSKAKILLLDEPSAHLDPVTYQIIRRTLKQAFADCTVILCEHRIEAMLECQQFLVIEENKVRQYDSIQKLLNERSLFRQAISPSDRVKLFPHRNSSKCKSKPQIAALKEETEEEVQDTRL
Sequence of ΔF508-CFTR (P13569 with tags, fused parts or gaps DEL508-508): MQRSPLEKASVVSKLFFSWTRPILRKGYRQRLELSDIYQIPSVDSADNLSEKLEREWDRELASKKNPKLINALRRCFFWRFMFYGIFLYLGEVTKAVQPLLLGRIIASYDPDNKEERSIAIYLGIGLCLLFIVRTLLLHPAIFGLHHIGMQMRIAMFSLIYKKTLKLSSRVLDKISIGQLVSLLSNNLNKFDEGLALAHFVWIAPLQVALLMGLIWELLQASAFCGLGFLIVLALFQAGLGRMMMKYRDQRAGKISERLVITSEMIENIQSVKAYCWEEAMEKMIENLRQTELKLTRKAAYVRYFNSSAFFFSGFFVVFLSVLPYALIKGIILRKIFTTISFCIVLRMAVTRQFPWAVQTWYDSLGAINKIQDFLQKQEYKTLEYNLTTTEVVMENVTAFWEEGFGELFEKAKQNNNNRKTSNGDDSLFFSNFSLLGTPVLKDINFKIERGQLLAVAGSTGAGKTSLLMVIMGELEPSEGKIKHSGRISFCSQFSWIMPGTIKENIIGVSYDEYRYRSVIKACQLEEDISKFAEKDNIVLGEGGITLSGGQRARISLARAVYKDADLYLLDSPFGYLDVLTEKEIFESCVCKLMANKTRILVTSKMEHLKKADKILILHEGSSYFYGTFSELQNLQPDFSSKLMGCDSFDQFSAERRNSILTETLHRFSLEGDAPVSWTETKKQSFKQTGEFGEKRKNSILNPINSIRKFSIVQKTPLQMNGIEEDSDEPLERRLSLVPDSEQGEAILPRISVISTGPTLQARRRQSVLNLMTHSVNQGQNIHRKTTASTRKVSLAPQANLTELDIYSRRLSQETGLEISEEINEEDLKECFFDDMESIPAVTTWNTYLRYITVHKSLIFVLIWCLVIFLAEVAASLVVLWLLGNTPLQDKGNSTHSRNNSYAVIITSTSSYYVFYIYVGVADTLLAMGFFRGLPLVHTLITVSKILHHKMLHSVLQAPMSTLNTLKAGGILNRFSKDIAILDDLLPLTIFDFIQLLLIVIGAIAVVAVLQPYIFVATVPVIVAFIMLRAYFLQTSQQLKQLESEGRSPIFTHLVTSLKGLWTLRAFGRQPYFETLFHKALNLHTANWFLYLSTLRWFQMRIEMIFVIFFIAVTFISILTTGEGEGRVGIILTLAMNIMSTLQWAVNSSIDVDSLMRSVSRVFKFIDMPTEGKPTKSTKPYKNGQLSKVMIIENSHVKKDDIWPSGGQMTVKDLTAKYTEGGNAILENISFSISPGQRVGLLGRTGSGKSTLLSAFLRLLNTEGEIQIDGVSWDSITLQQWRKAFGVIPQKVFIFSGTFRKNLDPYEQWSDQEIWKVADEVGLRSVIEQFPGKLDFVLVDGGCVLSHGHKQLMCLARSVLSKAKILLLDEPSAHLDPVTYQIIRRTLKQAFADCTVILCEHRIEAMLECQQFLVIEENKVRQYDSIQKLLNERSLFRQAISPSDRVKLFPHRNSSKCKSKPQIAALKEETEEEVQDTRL

Structure (SMILES) | effect on I- efflux at high forskolin concentrations (wt-CFTR [1]; 50 μM genistein, high forskolin) | slope of variance vs mean current (proportional to 1-Po) (ΔF508-CFTR; [4]) [pA] | slope of variance vs mean current (proportional to 1-Po) (wt-CFTR [2]; [4]) [pA] | stimulation of I- efflux in mock cells ([3]; 50 μM genistein) | stimulation of I- efflux in mock cells ([3]; 50 μM genistein plus 1 μM forskolin) | EC50 (wt-CFTR [1]) [nM] | stimulation of normal CFTR activity (wt-CFTR [1]) | maximal fold induction at 10 µM (wt-CFTR [1]; mouse, read-out: maximal stimulation of I- efflux) | EC50 (wt-CFTR [1]; read-out: K1/2 of forskolin for I- efflux in presence of genistein, with 50 μM genistein, NIH/3T3-CFTR cells) [nM] | slope of variance vs mean current (proportional to 1-Po) (ΔF508-CFTR; 10 μM forskolin) [pA] | slope of variance vs mean current (proportional to 1-Po) (wt-CFTR [2]; 10 μM forskolin) [pA] | stimulation of I- efflux in mock cells ([3]; 1 μM forskolin)
O=c1c(-c2ccc(O)cc2)coc2cc(O)cc(O)c12 [Genistein, 4',5,7-trihydroxyisoflavone] | had no effect at high forskolin concentrations | 0.16±0.03 | 0.17±0.02 | neither 1 μM forskolin, 50 μM genistein, nor 50 μM genistein plus 1 μM forskolin stimulated | neither 1 μM forskolin, 50 μM genistein, nor 50 μM genistein plus 1 μM forskolin stimulated | – | – | – | – | – | – | –
C=C[C@@]1(C)CC(=O)[C@]2(O)[C@@]3(C)[C@@H](O)CCC(C)(C)[C@@H]3[C@H](O)[C@H](OC(C)=O)[C@@]2(C)O1 [forskolin] | – | – | – | – | – | 110 ± 30 | stimulates normal CFTR activity very well | 8.2 ± 0.4 | 50 ± 20 | 0.72±0.06 | 0.27±0.02 | neither 1 μM forskolin, 50 μM genistein, nor 50 μM genistein plus 1 μM forskolin stimulated
